Measurements: US6946470B2, “Method of treating psychosis in a patient” (Medical and Pharmaceutical Industry Technology and …, priority 2002, dated 2005)

Legend:
[1] = target: T1, human dopamine D2L receptors (Homo sapiens, UniProt P14416); test: Dopamine D2L receptor binding assay ([3H]Spiperone); conditions: 30 nM, CHO cell membranes
T1 construct: expressed in transfected cells
Description: Dopamine D2L Receptor Binding Assay
This assay measures binding of [^3H]Spiperone to human dopamine D2L receptors. CHO cells stably transfected with a plasmid encoding the human dopamine D2L receptor were used to prepare membranes in modified Tris-HCl pH 7.4 buffer. A 20 μg aliquot of membrane, in the presence or absence of a test compound, was incubated with 0.16 nM [^3H]Spiperone for 120 minutes at 25° C. Non-specific binding was estimated in the presence of 10 μM hapoperidol. Membranes were filtered and washed three times and the filters were counted to determine [^3H]Spiperone specifically bound. [References: Grandy D K, Marchionni M A, Makam H, Stofko R E, Alfano M, Frothingham L, Fischer J B, Burker-Howie K J, Bunzow J R, Server A C. Proc. Natl. Acad. Sci. (USA) 86: 9762-9766, 1989; Bunzow J R, Van Tol H H, Grandy D K, Albert P, Salon J, Christie M, Machida C A, Neve K A, Civelli O. Nature 336: 783-787, 1988; Hayes G, Biden T J, Selbie L A, Shine J. Mol. Endocrin. 6: 920-926, 1992]

[2] = target: T2, serotonin 5-HT2 receptors (Rattus norvegicus, UniProt P14842); test: Serotonin 5-HT2 receptor binding assay ([3H]Ketanserin); conditions: 30 nM, rat whole brain membranes
T2 construct: from tissue; host or cells: rat whole brain (except cerebellum) membranes
Description: Serotonin 5-HT2 Receptor Binding Assay
This assay measures binding of [^3H]Ketanserin to serotonin 5-HT2 receptors. Whole brain (except cerebellum) membranes of male Wistar derived rats weighing 175±25 g were prepared in Tris-HCl pH 7.7 buffer. A 10 mg aliquot of membrane was incubated with 0.5 nM [^3H]Ketanserin for 40 minutes at 25° C. Non-specific binding was estimated in the presence of 1 μM Ketanserin. Membranes were filtered and washed three times and the filters were counted to determine [^3H]Ketanserin specifically bound. [Reference: Leysen J E, Niemegeers C J, Van Nauten J M, Laduron D M. Mol. Pharmacol. 21: 301-314, 1982]

[3] = system: apomorphine-induced climbing behavior in mice; test: Effects on apomorphine-induced climbing behavior; format: in vivo; conditions: for Inhibition % of apomorphine-induced climbing behavior: apomorphine 1 mg/kg SC 60 min after dosing; for Agonist activity (score): group score 0-6, 30 to 60 minutes post-dosing, 3 mice
Description: Climbing behavior was scored 0-2 for each animal from 30 to 60-minutes post-dosing: all four paws on floor=0, both forefeet holding the wall=1, all four paws on wall=2. Consequently, maximum possible group score was 2×3 mice=6. A score of 3 or more (≧3) during this 30 minute observation period denotes dopamine-agonist activity. Mice in which no significant dopamine agonist activity occurred were then used to determine antagonistic activity. […] [Reference: Psychopharmacology 50: 1-6, 1976] Percentage inhibition of test substance on apomorphine-induced climbing behavior is calculated as follows: [formula]

T1 sequence (P14416 whole entry): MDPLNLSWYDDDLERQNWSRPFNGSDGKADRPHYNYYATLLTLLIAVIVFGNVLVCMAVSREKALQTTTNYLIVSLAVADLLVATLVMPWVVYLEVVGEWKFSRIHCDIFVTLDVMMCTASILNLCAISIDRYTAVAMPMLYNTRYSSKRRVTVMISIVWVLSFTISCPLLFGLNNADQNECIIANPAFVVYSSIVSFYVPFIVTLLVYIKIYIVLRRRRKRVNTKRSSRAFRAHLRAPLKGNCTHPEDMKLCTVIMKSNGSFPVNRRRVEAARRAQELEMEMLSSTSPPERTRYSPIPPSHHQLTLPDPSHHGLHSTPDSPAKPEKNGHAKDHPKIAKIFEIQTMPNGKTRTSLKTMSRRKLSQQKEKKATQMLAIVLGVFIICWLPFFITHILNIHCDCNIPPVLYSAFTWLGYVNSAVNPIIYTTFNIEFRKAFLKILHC
T2 sequence (P14842 whole entry): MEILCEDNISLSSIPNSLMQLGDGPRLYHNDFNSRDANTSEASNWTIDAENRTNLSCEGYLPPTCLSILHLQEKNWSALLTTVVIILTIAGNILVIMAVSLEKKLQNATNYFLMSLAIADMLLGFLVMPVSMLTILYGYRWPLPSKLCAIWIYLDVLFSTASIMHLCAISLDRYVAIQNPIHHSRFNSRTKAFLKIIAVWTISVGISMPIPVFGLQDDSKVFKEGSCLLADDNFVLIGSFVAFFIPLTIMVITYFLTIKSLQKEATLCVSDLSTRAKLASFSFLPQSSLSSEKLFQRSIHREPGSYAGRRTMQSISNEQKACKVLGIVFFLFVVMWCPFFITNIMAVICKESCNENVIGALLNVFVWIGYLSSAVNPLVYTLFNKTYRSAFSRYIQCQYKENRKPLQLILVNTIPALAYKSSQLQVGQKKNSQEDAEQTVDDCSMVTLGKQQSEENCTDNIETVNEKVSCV

SMILES | inhibition at 0.03 µM [1] [%] | inhibition at 0.03 µM [2] [%] | Inhibition % D2L [1] [%] | Inhibition % 5-HT2 [2] [%] | further results
O=C1Nc2ccccc2C2=NC(CN3CCN(Cc4ccccc4)CC3)CN12 (stereo not shown) [PDC-121, 2-[4-benzyl-1-piperazinyl]methyl-2,3-dihydroimidazo[1,2-c]quinazolin-5(6H)-one] | 18 | 21 |  |  | 
O=C1Nc2ccccc2C2=NC(CC3CCC4(CCCCC4)NC3)CN12 (stereo not shown) [PDC-122, 3-{2,3-dihydroimidazo[1,2-c]quinazolin-5(6H)-one-2-yl}methyl-azaspiro-[5,5]undecane] | 13 | 2 |  |  | 
O=C1Nc2ccccc2C2=NC(CN3CCN(Cc4ccc5c(c4)OCO5)CC3)CN12 (stereo not shown) [PDC-123, 2-[4-piperonyl-1-piperazinyl]methyl-2,3-dihydroimidazo[1,2-c]-quinazolin-5(6H)-one] | 11 | 4 |  |  | 
O=C1Nc2ccccc2C2=NC(CN3CCC(Cc4ccccc4)CC3)CN12 (stereo not shown) [PDC-124, 2-[4-Benzyl-1-piperidinyl]methyl-2,3-dihydroimidazo[1,2-c]quinazolin-5(6H)-one] | 14 | 62 |  |  | Inhibition % of apomorphine-induced climbing behavior ([3]; PO 30 mg/kg): 50%; Agonist activity (score) ([3]; PO 30 mg/kg): 0
O=C1Nc2ccccc2C2=NC(CNC3CCN(Cc4ccccc4)CC3)CN12 (stereo not shown) [PDC-126, 2-[1-benzylpiperidin-4-yl]aminomethyl-2,3-dihydroimidazo[1,2-c]-quinazolin-5(6H)-one] | 29 | 11 |  |  | 
O=C1Nc2ccccc2C2=NC(CN3CCN(Cc4ccc(F)cc4)CC3)CN12 (stereo not shown) [PDC-127, 2-[4-(4-fluorobenzyl)-1-piperazinyl]methyl-2,3-dihydroimidazo[1,2-c]quinazolin-5(6H)-one] | 11 | 20 |  |  | 
O=C(c1ccc(F)cc1)C1CCN(CC2CN3C(=O)Nc4ccccc4C3=N2)CC1 (stereo not shown) [PDC-130, 2-[1-(4-p-fluorobenzoyl)piperidinyl]methyl-2,3-dihydroimidazo[1,2-c]-quinazolin-5(6H)-one] |  |  | 16 | 88 | Inhibition % of apomorphine-induced climbing behavior ([3]; PO 1 mg/kg): 0%; Agonist activity (score) ([3]; PO 1 mg/kg): 0; Inhibition % of apomorphine-induced climbing behavior ([3]; PO 3 mg/kg): 60%; Agonist activity (score) ([3]; PO 3 mg/kg): 0; Inhibition % of apomorphine-induced climbing behavior ([3]; PO 10 mg/kg): 100%; Agonist activity (score) ([3]; PO 10 mg/kg): 0; Inhibition % of apomorphine-induced climbing behavior ([3]; PO 30 mg/kg): 100%; Agonist activity (score) ([3]; PO 30 mg/kg): 0
O=C1Nc2ccccc2C2=NC(CN3CCN(C(c4ccccc4)c4ccc(Cl)cc4)CC3)CN12 (stereo not shown) [PDC-131, 2-[1-(4-chlorobenzhydryl)piperazinyl]methyl-2,3-dihydroimidazo[1,2-c]-quinazolin-5(6H)-one] |  |  | 10 | 47 | 
COc1ccc(N2CCN(CC3CN4C(=O)Nc5ccccc5C4=N3)CC2)cc1 (stereo not shown) [PDC-132, 2-[1-(4-methoxyphenyl)piperazinyl]methyl-2,3-dihydroimidazo[1,2-c]-quinazolin-5(6H)-one] |  |  | 15 | 5 | 
